Assay results from patent US20220221458A1, “NOROVIRUS-BINDING PEPTIDE” (Kao Corporation, priority 2019, published 2022).

Test system: norovirus VLPs (GII.4, GII.3, GII.17)
Assay: In vitro selection by cDNA display against VLPs with appearance frequency analysis of sequences
Details: count among peptide aptamer sequences obtained after in vitro selection cycles (7 cycles GII.4, 5 cycles GII.3 and GII.17)
Protocol: The constructed cDNA display and VLPs were incubated in 100 μL of a dialysis selection buffer (20 mM HEPES (pH 7.4), 150 mM NaCl, and 0.05% s Tween 20) at the concentrations shown in Table 9 below at 25° C. for 30 minutes. Subsequently, the resultant was diluted to 1 mL with the dialysis selection buffer, and was put in Float-A-Lyzer G2 Dialysis Device CE, 1000kD MWCO (manufactured by Spectrum Laboratories, Inc.) and was dialyzed with 1 L of the dialysis selection buffer as the external solution at 25° C. During the dialysis, the external solution was replaced with new one 3 times every 2 hours, and the dialysis was performed overnight (for 8 hours) after the 4th replacement. The dialysis product was concentrated with Amicon Ultra 100K (manufactured by Merck Millipore S.A.S.) at 14,000×g for 5 minutes.
To an immunoplate (C-BOTTOM, CLEAR, MICROLON (registered trademark), HIGH BINDING, manufactured by Greiner Bio-One), 100 μL of 3 μg/mL GII.3 or GII.17 VLP solution was added and immobilization was performed at 4° C. overnight. Subsequently, the solution was discarded, and 200 μL of a blocking agent (EMD Millipore™ Blok™ NSB Blocking agents, Thermo Fisher Scientific) was added, followed by gently stirring at room temperature for 2 hours for blocking. On this occasion, wells not immobilizing the VLP were also subjected to similar blocking to be used in preselection.
The solution was discarded from the wells, the wells were washed with 200 μL of a wash buffer (10 mM Hepes (pH 7.4), 150 mM NaCl, and 0.05% Tween 20) three times, and 100 μL of cDNA display (constructed from 1.5 pmol of mRNA-linker) was then put in the wells not immobilizing the VLP, followed by gently stirring at room temperature for 30 minutes to perform preselection. Subsequently, the supernatant containing cDNA display that had not bound to the blocking agent was put in the wells immobilizing the VLP, followed by gently stirring at room temperature for 30 minutes to be bound to the VLP. The supernatant was discarded, washing with 100 μL of the wash buffer was performed four times, and 100 μL of a 5′ SDS solution was then added, followed by incubation at 50° C. for 15 minutes to elute the bound cDNA display.
Subsequently, the VLP-cDNA display complex obtained above was diluted to 100 μL with a dialysis selection buffer, and 10 μL of a coprecipitating agent (Quick-Precip Plus Solution, manufactured by EdgeBio) and 220 μL of 100% ethanol were added, followed by centrifugation at 20,000×g for 5 minutes. Subsequently, the supernatant was discarded, and 1 mL of 70, ethanol was added for rinsing. […] The PCR program was (a) 98° C. for 2 minutes, (b) 95° C. for 20 seconds, (c) 69° C. for 20 seconds, (d) 72° C. for 20 seconds (steps (b) to (d) were performed 25 cycles), and (e) 72° C. for 1 minute.
After the in vitro selection cycle (7 cycles for GII.4 and 5 cycles for GII.3 and GII.17 based on the libraries of 7 cycles obtained by GII.4 dialysis), a sequence library was prepared by the following method, and the sequence information was analyzed. The preparation of the sequence library and the sequencing were performed according to the 16S Metagenomic Sequencing Library Preparation protocol (manufactured by Illumina, Inc.).
The Fastq file of the obtained sequence was converted to a Fasta file, all of the obtained sequences were simultaneously translated from the first base of the start codon (ATG) at position 115 to the third base of the cysteine codon (TGC) at position 156 of the library sequence (SEQ ID NO: 279) using software MEGA.

| Substance | Appearance Frequency |
| --- | --- |
| 175 (FPFYHR; Designed peptide) [compound 175] | 6 |
| 2 (CLSNLA; Designed peptide) [compound 2] | 21 |
| 114 (GSLDIM; Designed peptide) [compound 114] | 7 |
| 245 (RYMPVA; Designed peptide) [compound 245] | 6 |
| 257 (TNRTVS; Designed peptide) [compound 257] | 6 |
| 160 (WAGHRH; Designed peptide) [compound 160] | 7 |
| 93 (THACAH; Designed peptide) [compound 93] | 8 |
| 223 (NSRYFT; Designed peptide) [compound 223] | 6 |
| 157 (VRPSNG; Designed peptide) [compound 157] | 7 |
| 182 (GLLIPF; Designed peptide) [compound 182] | 6 |
| 253 (SSKSFA; Designed peptide) [compound 253] | 6 |
| 220 (NPVHIK; Designed peptide) [compound 220] | 6 |
| 102 (AFTSHW; Designed peptide) [compound 102] | 7 |
| 148 (RTGLLS; Designed peptide) [compound 148] | 7 |
| 228 (QRVSFL; Designed peptide) [compound 228] | 6 |
| 110 (GFAISR; Designed peptide) [compound 110] | 7 |
| 46 (RVSLYD; Designed peptide) [compound 46] | 10 |
| 108 (FWHARL; Designed peptide) [compound 108] | 7 |
| 131 (NHCPSR; Designed peptide) [compound 131] | 7 |
| 150 (STVRHR; Designed peptide) [compound 150] | 7 |
| 259 (VGMHHS; Designed peptide) [compound 259] | 6 |
| 27 (VHYRQT; Designed peptide) [compound 27] | 12 |
| 265 (WVFVKH; Designed peptide) [compound 265] | 6 |
| 197 (HWLRSV; Designed peptide) [compound 197] | 6 |
| 116 (HHRLHG; Designed peptide) [compound 116] | 7 |
| 218 (NGHSHA; Designed peptide) [compound 218] | 6 |

| Substance | Appearance Frequency |
| --- | --- |
| 185 (GRNAGR; Designed peptide) [compound 185] | 6 |
| 96 (VGRFPQ; Designed peptide) [compound 96] | 8 |
| 193 (HMMSRL; Designed peptide) [compound 193] | 6 |
| 54 (FDHFYS; Designed peptide) [compound 54] | 9 |
| 41 (GNIPGH; Designed peptide) [compound 41] | 10 |
| 149 (SDRVIA; Designed peptide) [compound 149] | 7 |
| 199 (IGRTFH; Designed peptide) [compound 199] | 6 |
| 200 (IHSPQK; Designed peptide) [compound 200] | 6 |
| 120 (IGKGMV; Designed peptide) [compound 120] | 7 |
| 103 (AHLHCD; Designed peptide) [compound 103] | 7 |
| 5 (RCSHLR; Designed peptide) [compound 5] | 18 |
| 59 (MAWIGS; Designed peptide) [compound 59] | 9 |
| 251 (SKYTAL; Designed peptide) [compound 251] | 6 |
| 159 (VYFIPD; Designed peptide) [compound 159] | 7 |
| 101 (YEGRND; Designed peptide) [compound 101] | 8 |
| 71 (CNLIAK; Designed peptide) [compound 71] | 8 |
| 92 (TGHIVW; Designed peptide) [compound 92] | 8 |
| 79 (GWYFHA; Designed peptide) [compound 79] | 8 |
| 72 (DFGQSS; Designed peptide) [compound 72] | 8 |
| 181 (GKVTFD; Designed peptide) [compound 181] | 6 |
| 57 (HVRPFY; Designed peptide) [compound 57] | 9 |
| 127 (LISRHD; Designed peptide) [compound 127] | 7 |
| 125 (LASMWR; Designed peptide) [compound 125] | 7 |
| 240 (RNHSRI; Designed peptide) [compound 240] | 6 |
| 213 (MQFELV; Designed peptide) [compound 213] | 6 |
| 48 (VDSTSV; Designed peptide) [compound 48] | 10 |

| Substance | Appearance Frequency |
| --- | --- |
| 100 (WDRPAF; Designed peptide) [compound 100] | 8 |
| 224 (PDRFCA; Designed peptide) [compound 224] | 6 |
| 216 (NCRTRP; Designed peptide) [compound 216] | 6 |
| 16 (LSKHSR; Designed peptide) [compound 16] | 13 |
| 186 (HDSRIR; Designed peptide) [compound 186] | 6 |
| 129 (MHSSLS; Designed peptide) [compound 129] | 7 |
| 7 (GWHETE; Designed peptide) [compound 7] | 17 |
| 53 (ACRSAF; Designed peptide) [compound 53] | 9 |
| 21 (GKFFCH; Designed peptide) [compound 21] | 12 |
| 211 (LTALSV; Designed peptide) [compound 211] | 6 |
| 123 (KRGGMV; Designed peptide) [compound 123] | 7 |
| 20 (DYVFCG; Designed peptide) [compound 20] | 12 |
| 87 (SIESCL; Designed peptide) [compound 87] | 8 |
| 140 (RFVKRR; Designed peptide) [compound 140] | 7 |
| 39 (EMSRHC; Designed peptide) [compound 39] | 10 |
| 164 (AKQRFT; Designed peptide) [compound 164] | 6 |
| 81 (HRSNGH; Designed peptide) [compound 81] | 8 |
| 250 (SKVIRW; Designed peptide) [compound 250] | 6 |
| 8 (PCSYFS; Designed peptide) [compound 8] | 17 |
| 158 (VWYWTS; Designed peptide) [compound 158] | 7 |
| 202 (ILTHQH; Designed peptide) [compound 202] | 6 |
| 73 (EWAVSK; Designed peptide) [compound 73] | 8 |
| 121 (ILISSC; Designed peptide) [compound 121] | 7 |
| 229 (QVIQRL; Designed peptide) [compound 229] | 6 |
| 208 (LLGKPV; Designed peptide) [compound 208] | 6 |
| 172 (ECHHVH; Designed peptide) [compound 172] | 6 |

| Substance | Appearance Frequency |
| --- | --- |
| 74 (FPYARN; Designed peptide) [compound 74] | 8 |
| 1 (GRRYYI; Designed peptide) [compound 1] | 23 |
| 89 (SRSICS; Designed peptide) [compound 89] | 8 |
| 209 (LNDMSF; Designed peptide) [compound 209] | 6 |
| 207 (LHHSSY; Designed peptide) [compound 207] | 6 |
| 187 (HDYVSE; Designed peptide) [compound 187] | 6 |
| 80 (HICIRR; Designed peptide) [compound 80] | 8 |
| 50 (VIEMLD; Designed peptide) [compound 50] | 10 |
| 189 (HHNAPI; Designed peptide) [compound 189] | 6 |
| 49 (VETDGH; Designed peptide) [compound 49] | 10 |
| 248 (SHWRSY; Designed peptide) [compound 248] | 6 |
| 145 (RRRTFH; Designed peptide) [compound 145] | 7 |
| 94 (TVASNN; Designed peptide) [compound 94] | 8 |
| 104 (DRVQSR; Designed peptide) [compound 104] | 7 |
| 210 (LSLRSQ; Designed peptide) [compound 210] | 6 |
| 113 (GMSCGI; Designed peptide) [compound 113] | 7 |
| 263 (VSDPVV; Designed peptide) [compound 263] | 6 |
| 84 (LASSGH; Designed peptide) [compound 84] | 8 |
| 262 (VPLLSR; Designed peptide) [compound 262] | 6 |
| 238 (RLHQCR; Designed peptide) [compound 238] | 6 |
| 215 (NAVSLK; Designed peptide) [compound 215] | 6 |
| 11 (GHPNPR; Designed peptide) [compound 11] | 15 |
| 67 (SKHLAG; Designed peptide) [compound 67] | 9 |
| 6 (FLDTLG; Designed peptide) [compound 6] | 17 |
| 170 (DSKLHN; Designed peptide) [compound 170] | 6 |
